# Experimental data published in US8088412B2, “Intralymphatic chemotherapy drug carriers” (priority 2008, dated 2012).
# Where two headings read alike, the source gives them in different places.
# Tests used:
# MDA-MB-231 = experiment: In vitro cell toxicity (DMEM, resazurin blue, 72 hrs); type: cell-based, human
# Experimental: (§1) Cell lines were seeded into 96-well plates (5000 cells/well) in DMEM medium supplemented with 5% FBS and 1% penicillin/streptomycin.
# MCF7 = experiment: as above; type: cell-based, human
# Experimental: as §1
# [1] = tested on: three aggressive human breast cancer cell lines; experiment: Cell proliferation, Alamar blue assay, 72 hrs; type: cell-based; settings: breast cancer cells in culture
# Experimental: The 10% w/w conjugate was applied to cells, and 72 hrs later, cell proliferation was determined using the Alamar blue assay (Invitrogen Corp.). […] Similarly, cisplatin conjugates were applied to breast cancer cells in culture. […] This may be due release of anticancer drugs from nanocarriers into the culture media, followed by uptake as with free drug.
# [2] = design: species or system Sprague-Dawley rats; settings: rat, in vivo, sc
# Experimental: Sprague-Dawley rats (female, 200-250 g) were cannulated in the left jugular vein under isoflurane and allowed to recover overnight. […] Subcutaneous injections were given in the uppermost right mammary fatpad of the animal. Whole blood was withdrawn (100 μl) from the cannula at 0, 5 min, 0.5, 1, 2, 4, 6, 12, 24, 48 and 96 hrs after dosing and placed into 2-ml centrifuge tubes pretreated with heparin. The cannula was washed before and after withdrawal with saline and then heparin locked. The whole blood was centrifuged at 17,000×g for 5 mins, and the plasma was frozen at −80° C. until analysis. Animals were euthanized […]. The right ipsilateral axilla nodes (treated side), left contralateral axilla nodes (control side), and major organs (liver, kidneys, heart, spleen, lungs, brain, muscle, bladder) were excised; washed with 0.9% saline; and stored at −80° C. until analysis. […] Typically, 50 mg of tissue sample was digested using 1.5 ml of 6.7% nitric acid for 2 hours at 80° C. After digestion, samples were homogenized (Tissue Tearor; BioSpec Products Inc., Bartlesville, Okla.) and centrifuged. The supernatant and plasma samples were analyzed by AAS as described in the Synthesis section.
# In vitro release samples (n=3) and plasma samples (n=5) were diluted 200-fold and 10-fold, respectively, with 0.1% nitric acid for analysis. […]
# [3] = Long-term toxicology: urine creatinine; type: in vivo, Sprague-Dawley rats; settings: 3.3 mg/kg subcutaneous, single dose
# Experimental: Each animal was administered a single bolus dose at the beginning of the 30-day study period. […] Urine samples were centrifuged at 17,000×g for 5 mins and stored in −80° C. freezer until creatinine analysis.
# Urine creatinine was analyzed using the QuantiChrom™ Creatinine Assay Kit according to the manufacturer's instructions (BioAssay Systems, Hayward, Calif.). Creatinine concentration of the sample was calculated as (ODSAMPLE 5-ODSAMPLE 1) (ODSTD 5-ODSTD 1)×[STD] (mg/dL). ODSAMPLE5 ODSAMPLE1, ODSTD5, and ODSTD1 are OD510nm values of sample and standard at 5 min and 1 min, respectively.
# MDA-MB-468LN = experiment: Cell proliferation over 72 hrs, resazurin blue; type: cell-based, human
# Experimental: Preceding proliferation studies, cells were trypsinized and seeded into 96-well plates (5,000 cells/well). […] After 4 hrs, well fluorescence was measured (λex 560 nm, λem 590 nm) using a fluorophotometer (SpectraMax Gemini; Molecular Devices, Sunnyvale, Calif.). IC50 was determined as the midpoint between saline (positive) and cell-free (negative) controls for each plate.
substance,measurement,setting,value
[PtCl(H2O)(NH3)2]OOCO-HA [HA-cisplatin],IC50,MDA-MB-231; cisplatin basis,7 µg/mL
same,IC50,MDA-MB-231; read-out: IC50,23 µM
same,IC50,"MCF7; MCF-7, cisplatin basis",7 µg/mL
same,IC50,"MCF7; MCF-7, read-out: IC50",23 µM
same,anticancer activity compared with free cisplatin,[1],not significantly different from free cisplatin
same,delay before plasma platinum peaked and plateaued-off,[2],2 h
same,urine creatinine levels,[3],remained near pre-dosing levels
same,IC50,MDA-MB-468LN; HA carriers on a Pt-basis equivalent to cisplatin,10 µg/mL
same,IC50,"MDA-MB-468LN; Pt-basis, read-out: IC50",33 µM
